Laboratory results: patent US11484603B2, “Methods, systems, and compositions for inhibiting virulence of A/E family pathogens” (ARIZONA BOARD OF REGENTS ON BEHALF OF THE UNIVERSITY OF …, priority 2017, dated 2022)

What was measured:
mitochondrial network = assay: CCCP-induced perturbation of the mitochondrial network (COXIV/DAPI stain); assay type: cell-based; conditions: compared to mock-treated controls
Excerpt: In transfected cells, EspZ prevented COOP-induced perturbation of the mitochondrial network (compared to control vector-transfected cells). Red=COXIV (mitochondrial stain); blue=DAPI stain.
The uncoupler carbonyl cyanide m-chlorophenylhydrazone (COOP) induces Fis1- and Drp1-dependent mitochondrial fission. In transfected cells, EspZ prevented COOP-induced perturbation of the mitochondrial network (see FIG. 10). Thus, EspZ may be necessary and sufficient for inhibiting mitochondrial fission.

[1] = system: EspZ dimerization/oligomerization; assay: ToxLuc system (ToxR-TM-MBP fusions, ctx promoter luciferase reporter); assay type: cell-based, EPEC; conditions: TM2 derivatives expressed as ToxR-TM-MBP fusions in E. coli ΔmalE strain (NT326); baseline Ala17
Excerpt: (§1) Directional targeting of the TM region to the inner membrane allows the periplasmic MBP domain to complement the growth of the ΔmalE strain in medium containing maltose as the sole carbon source. […] TM domain interactions induce dimerization of cytoplasmic ToxR domains, allowing the transcriptional activator to bind to the ctx promoter and promote expression of the downstream luciferase reporter. […] A 17-residue poly-alanine stretch (Ala17) was used as a baseline TM control for nonspecific ToxR-dependent luciferase activation. A GpA GXXXG mutant (G831) was impaired for luciferase activation (REF).
as §1, with “Membrane-localized GXXXG sequences can promote homo- and hetero-typic interactions between proteins. Referring to FIG. 5A and FIG. 5B, a ToxLuc system was used to verify targeting of the predicted EspZ TM regions to the membrane and to assess the role of GXXXG sequences in EspZ dimerization/oligomerization. […] Western blot analyses confirmed robust expression of all ToxR-TM-MBP fusion proteins. Directional” for “Directional”, “activation. As noted previously, a” for “activation. A”, “mutant (G83I)” for “mutant (G831)”

| Compound | effect on mitochondrial network (mitochondrial network) | luciferase activity (TM self-association) [1] |
| --- | --- | --- |
| N#CC(C#N)=NNc1cccc(Cl)c1 [CCCP, carbonyl cyanide m-chlorophenylhydrazone] | causes fragmentation of the mitochondrial network and its retraction towards the nucleus |  |
| LGLGIAAGVLGLVTTVAGGLAMK (Artificial inhibitor peptide based on EspZ) [G85L, targeting peptide, EspZ TM2 derivative] |  | reduced luciferase activity to near-baseline levels |
| LGLGIAALVLGGVTTVAGGLAMK (Artificial inhibitor peptide based on EspZ) [G81L, targeting peptide, EspZ TM2 derivative] |  | reduced luciferase activity to near-baseline levels |
| LGLLIAALVLGLVTTVAGGLAMK (Artificial inhibitor peptide based on EspZ) [all three G residues, targeting peptide, EspZ TM2 derivative] |  | abrogated luciferase expression |
